Test system: Mouse macrophages
Assay: Evaluation of reactive nitrogen species inhibiting ability (nitric oxide production, Griess reagent, LPS-treated macrophages)
Type: cell-based
Conditions: for Nitrogen oxide concentration, Average / Nitrogen oxide concentration, Once / Nitrogen oxide concentration, Two times / Nitrogen oxide concentration, Three times: LPS 1 µg/ml, cultured 24 hours; for Nitrogen oxide concentration, Average: average of three; for Nitrogen oxide concentration, Once: replicate 1; for Nitrogen oxide concentration, Two times: replicate 2; for Nitrogen oxide concentration, Three times: replicate 3
Description: Mouse macrophages were divided into 1X10^6 cells in a 6-well plate and cultured for 24 hours, then treated with LPS (Lipopolysaccharide, concentration 1 µg/ml) solution, and treated with the 3-hydroxypropionic acid aqueous solution according to Preparation Example 1 at four concentrations (3HP concentration: 0 wt.%, 0.0125 wt.%, 0.025 wt.%, 0.05 wt.%), and then cultured again for 24 hours. Only the medium was then separated and centrifuged for 10 minutes to collect only the supernatant. The supernatant was mixed with Griess reagent (Sigma-Aldrich) reagent in a 1:1 ratio and reacted at room temperature, and then the absorbance (OD, wavelength 540 nm) was measured using a microplate reader. The measured value was substituted into the regression equation obtained from the standard curve prepared by reacting Griess reagent (Sigma-Aldrich) and NaNO2 in a 1:1 ratio to calculate the amount of nitric oxide(NO) produced. Here, the case in which neither the LPS solution nor the 3HP aqueous solution was treated was performed as a negative control group.

## O=C(O)CCO [Example 3HP, 3-hydroxypropionic acid]
3HP concentration 0.0125 wt.%
  Nitrogen oxide concentration, Average: 64.949 µM
  Nitrogen oxide concentration, Once: 63.956 µM
  Nitrogen oxide concentration, Two times: 64.800 µM
  Nitrogen oxide concentration, Three times: 66.093 µM
3HP concentration 0.025 wt.%
  Nitrogen oxide concentration, Average: 64.774 µM
  Nitrogen oxide concentration, Once: 63.138 µM
  Nitrogen oxide concentration, Two times: 65.222 µM
  Nitrogen oxide concentration, Three times: 65.961 µM
3HP concentration 0.05 wt.%
  Nitrogen oxide concentration, Average: 56.630 µM
  Nitrogen oxide concentration, Once: 56.146 µM
  Nitrogen oxide concentration, Two times: 56.357 µM
  Nitrogen oxide concentration, Three times: 57.386 µM
Under the treatment concentrations 0.0125 to 0.05 wt.%, result in words
  inhibiting the production of reactive nitrogen species: effect of inhibiting the production of reactive nitrogen species was exhibited

Source: EP4684784A1, “ANTI-INFLAMMATORY COSMETIC COMPOSITION” (LG Chem, Ltd., priority 2023, dated 2025)
